Measurements published in article PMC4911353, “Pharmacologic Inhibition of Host Phosphodiesterase-4 Improves Isoniazid-Mediated Clearance of Mycobacterium tuberculosis” (Frontiers in Immunology, 2016).

Test system: Mtb-infected mouse lungs
Assay: Genome-wide lung transcriptome (microarray, IPA network/GO analysis) of Mtb-infected mice
Type: in vivo
Conditions: TNF-a regulon network

## CCOc1cc([C@@H](CS(C)(=O)=O)N2Cc3cccc(NC(=O)C4CC4)c3C2=O)ccc1OC [CC-11050, N-[2-[(1S)-1-(3-ethoxy-4-methoxyphenyl)-2-(methylsulfonyl)ethyl]-2,3-dihydro-3-oxo-1H-isoindol-4-yl]-(9Cl) cyclopropanecarboxamide]
  ENTPD5 expression: 0
  ERCC1 expression: 0
  ERG expression: 0
  ESM1 expression: 0
  FABP1 expression: 0
  FABP4 expression: 0
  FBL expression: 0
  FBXO32 expression: 0
  FCER1G expression: 0
  FCER2 expression: 0
  FGF2 expression: 1.266
  FGF10 expression: 0
  FGF18 expression: 0
  FGFRL1 expression: 0
  FMO1 expression: 0
  FN1 expression: 0
  FNBP1 expression: 0
  FOXO4 expression: 0
  FPR1 expression: 0
  FUT4 expression: 0
  GAB1 expression: 0
  GBP2 expression: 0
  GCLM expression: 0
  GHR expression: 0
  GNAI1 expression: 0
  GNB4 expression: 0
  GNL1 expression: 0
  GOSR2 expression: 0
  GPD1 expression: 0
  GPR126 expression: 0
  GPR176 expression: 0
  GRIA1 expression: 0
  GRN expression: 0
  GSTM2 expression: 0
  GSTT1 expression: 1.249
  GUSB expression: 0
  Gbp2 expression: 0
  Gbp4 expression: 0
  Gbp6 (includes others) expression: 0
  Gsta4 expression: 0
  H2-Q4 expression: 0
  HAPLN1 expression: 0
  HERC1 expression: 0
  HES1 expression: 0
  HEXB expression: 0
  HIF1A expression: 0
  HIPK3 expression: 0
  HIVEP1 expression: 0
  HK2 expression: 0
  HK3 expression: 0
  HLA-B expression: 0
  HLA-C expression: 0
  HLA-DRA expression: 0
  HLA-E expression: 0
  HLA-F expression: 0
  HMGN2 expression: 0
  HPGD expression: 0
  HPGDS expression: 0
  HPRT1 expression: 0
  HSD3B2 expression: 0
  HSD11B1 expression: 1.622
  ID1 expression: 1.521
  IDH2 expression: 0
  IDO1 expression: 0
  IFIH1 expression: 0
  IFIT1B expression: 0
  IFNAR2 expression: 0
  IGFBP5 expression: 0
  IGFBP6 expression: 0
  IL1RN expression: 0
  IL2RA expression: 0
  IL10RA expression: 0
  IL17RD expression: 0
  IL18BP expression: 0
  IL21R expression: 0
  IL21 expression: 0
  INHBA expression: 0
  IRF1 expression: 0
  IRF5 expression: 0
  IRF7 expression: 0
  IRF8 expression: 0
  IRG1 expression: 0
  ISG15 expression: 0
  ITGA4 expression: 0
  ITGAL expression: 0
  ITGAM expression: 0
  ITGB2 expression: 0
  ITGB7 expression: 0
  Ifi204 (includes others) expression: 0
  KCNJ1 expression: 0
  KDR expression: 0
  KIF20A expression: 0
  KITLG expression: 0
  KLF7 expression: 1.276
  KLF10 expression: 1.476
  KRT23 expression: 0
  KYNU expression: 0
  LAMP3 expression: 0
  LCAT expression: 0
  LCN2 expression: 0
  LEP expression: 0
  LGALS12 expression: 0
  LITAF expression: 0
  LOC653486/SCGB1C1 expression: 0
  LOX expression: 1.533
  LPL expression: 0
  LRRC8C expression: 0
  LTB expression: 0
  LXN expression: 0
  LYVE1 expression: 1.461
  MAN1C1 expression: 0
  MAP2K3 expression: 1.176
  MAP4K4 expression: -1.132
  MAPKAP1 expression: 0
  MARCKSL1 expression: 0
  MCL1 expression: 0
  MCM3 expression: 0
  MEFV expression: 0
  MEOX1 expression: 0
  MEOX2 expression: 0
  MMP7 expression: 1.207
  MMP8 expression: 0
  MMP13 expression: 0
  MMP16 expression: 0
  MMP28 expression: 0
  MPC1 expression: 0
  MSR1 expression: 0
  MUC4 expression: 0
  MVP expression: 0
  MYO9B expression: 0
  NAGLU expression: 0
  NAIP expression: 0
  NAMPT expression: 0
  NCAM1 expression: 0
  NCF2 expression: 0
  NCOA2 expression: 0
  NEDD9 expression: -1.086
  NFATC1 expression: 0
  NFKB2 expression: 0
  NFKBIA expression: 0
  NFKBIE expression: 0
  NFKBIZ expression: -1.15
  NFRKB expression: 0
  NME3 expression: 1.1811
  NNMT expression: 0
  NPM3 expression: 0
  NPPA expression: 0
  NR4A1 expression: 0
  NR4A3 expression: 0
  NRP1 expression: 0
  NTN1 expression: 0
  NUAK1 expression: 0
  NUAK2 expression: 0
  Nppb expression: 0
  OAS1 expression: 0
  OAS2 expression: 0
  OAS3 expression: 0
  OASL expression: 0
  OCLN expression: 0
  OGN expression: 1.2
  OLFML2B expression: 0
  OLR1 expression: 0
  P2RY6 expression: 0
  PAFAH2 expression: 0
  PC expression: 0
  PCBP2 expression: 0
  PCDH7 expression: 0
  PCK1 expression: 0
